# PMC10959927, “Platinum iodido drugs show potential anti-tumor activity, affecting cancer cell metabolism and inducing ROS and senescence in gastrointestinal cancer cells” (Communications Biology, 2024)
# Values joined by “and” are separate entries in the source; they are usually repeats but may differ in a detail not shown here. Equal entries are not always repeated.
# Legend:
# Assay type in all cases: cell-based, human
# [1] = tested on: AGS cells; experiment: Seahorse XF OCR, ECAR and energy map
# Experimental: (§1) Oxygen Consumption Rate (OCR), Extra Cellular Acidification Rate (ECAR) and Energy map measurements. Cells were plated in XF HS Miniplates (Seahorse Bioscience) at a cellular density of 1 × 10^4 cells/well and incubated overnight. […] After an OCR baseline measurement, the minimum oxygen consumption was determined by adding 1.5 µM oligomycin (O) and the maximal respiration rate was assessed by adding 1 µM carbonyl cyanide p-trifluoro methoxyphenylhydrazone (FCCP, F). At the end of the experiment, the non-mitochondrial oxygen consumption was evaluated by adding both 0.5 µM rotenone (R) and antimycin (A). Experiments were run in a XF HS Mini analyzer (Seahorse Agilent), and raw data were normalized to total protein using a BCA protein assay kit (Cat. no. 23225, Thermo Scientific).
# [2] = tested on: PANC1 cells; experiment: Seahorse XF OCR, ECAR and energy map; set-up: Basal resp. / Maximal resp. / SRC: unit not given here
# Experimental: as §1
# [3] = tested on: PANC1 cells; experiment: Western blotting (p-p53, p-JNK, p-p38, p-ERK, p-CHK1/2, Mcl1, BID, BAX); settings: for fold change BAX vs Tubulin / fold change MCL1 vs Tubulin: Fig. S3B
# Experimental: Total protein extracts were obtained by adding the lysis buffer: 25 mM HEPES pH 7.5, 0.3 M NaCl, 1.5 mM MgCl2, 0.2 mM EDTA, 0.5 mM DTT, 20 mM β-glicerophosphate, 0.1 mM Na3VO4, 0.1% triton X-100; in the presence of protease inhibitors. Twenty μg of protein per sample were loaded and resolved using 8%, 10% or 15% SDS-PAGE polyacrylamide gels, and then transferred onto PVDF membranes, followed by immunodetection using appropriate antibodies, purchased from Santa Cruz Technology: Mcl-1 (sc-819), Cell Signaling Technology: BIM, BID, BAX (#9942), p-p38 (1:2000, #4631), p-p53^ser15 (#9284), p-ERK1/2 (1:2000, #9106), p-CHK1^ser345 and p-CHK2^ser19 (#9931), Promega Corporation-Spain: p-JNK (#V7932), or Sigma-Aldrich: α-tubulin (1:10000, #TP026). Unless indicated, all antibodies were diluted 1:1000. Secondary antibodies conjugated with horseradish peroxidase were purchased from BioRad, and chemiluminescence detection was performed using ECL (Santa Cruz Biotechnology).
# [4] = PANC1, Time 1 h, Fig. 4A, replicate values
smiles,measurement,setting,value
"CC(C)[NH][Pt@SP1]([I])([I])[NH]C(C)C [I6, cis-[PtI2(isopropylamine)2]]","ECAR, Mean (energy map)",[1]; AGS (with I5),23.74 mpH/min/absorbance
same,"OCR, Mean (energy map)",[1]; AGS (with I5),42.84 pmol/min/absorbance
same,ECAR (energy map),[1]; AGS (with I6),45.46 mpH/min/absorbance
same,"ECAR, Mean (energy map)",[1]; AGS (with I6),48.0093 mpH/min/absorbance
same,OCR (energy map),[1]; AGS (with I6),48.01 pmol/min/absorbance
same,"OCR, Mean (energy map)",[1]; AGS (with I6),45.4641 pmol/min/absorbance
same,effect on ECAR,"[1]; AGS, IC50 24 h",no apparent effect
same,OCR,"[1]; AGS, IC50 24 h, time 1.53 min (I5) / 1.53 min (I6)",30.1319 pmoles/min/µg protein and 31.3797 pmoles/min/µg protein and 53.7109 pmoles/min/µg protein
same,OCR,"[1]; AGS, IC50 24 h, time 8.04 min (I5) / 8.02 min (I6)",24.9329 pmoles/min/µg protein and 27.5046 pmoles/min/µg protein and 48.0298 pmoles/min/µg protein
same,OCR,"[1]; AGS, IC50 24 h, time 14.54 min (I5) / 14.51 min (I6)",26.4797 pmoles/min/µg protein and 27.4562 pmoles/min/µg protein and 48.9415 pmoles/min/µg protein
same,OCR,"[1]; AGS, IC50 24 h, time 21.13 min (I5) / 21.08 min (I6)",22.9934 pmoles/min/µg protein and 21.9038 pmoles/min/µg protein and 30.7096 pmoles/min/µg protein
same,OCR,"[1]; AGS, IC50 24 h, time 27.59 min (I5) / 27.57 min (I6)",20.5189 pmoles/min/µg protein and 20.6073 pmoles/min/µg protein and 30.1901 pmoles/min/µg protein
same,OCR,"[1]; AGS, IC50 24 h, time 34.07 min (I5) / 34.06 min (I6)",21.4481 pmoles/min/µg protein and 20.5528 pmoles/min/µg protein and 31.2982 pmoles/min/µg protein
same,OCR,"[1]; AGS, IC50 24 h, time 60.15 min (I5) / 60.16 min (I6)",12.0701 pmoles/min/µg protein and 11.1961 pmoles/min/µg protein and 18.1823 pmoles/min/µg protein
same,OCR,"[1]; AGS, IC50 24 h, time 66.63 min (I5) / 66.65 min (I6)",12.0579 pmoles/min/µg protein and 11.0677 pmoles/min/µg protein and 17.3668 pmoles/min/µg protein
same,OCR,"[1]; AGS, IC50 24 h, time 73.12 min (I5) / 73.14 min (I6)",11.7846 pmoles/min/µg protein and 9.533 pmoles/min/µg protein and 17.3382 pmoles/min/µg protein
same,"ECAR, Mean (energy map)",[2]; PANC1 (with I5),7.18 mpH/min/absorbance
same,"OCR, Mean (energy map)",[2]; PANC1 (with I5),8.75 pmol/min/absorbance
same,ECAR (energy map),[2]; PANC1 (with I6),32.52 mpH/min/absorbance
same,"ECAR, Mean (energy map)",[2]; PANC1 (with I6),146.969 mpH/min/absorbance
same,OCR (energy map),[2]; PANC1 (with I6),147 pmol/min/absorbance
same,"OCR, Mean (energy map)",[2]; PANC1 (with I6),32.5207 pmol/min/absorbance
same,ATP-product. coupled resp.,"[2]; PANC1, IC50 24 h",76.46 and 74.62 and 73.2
same,Basal resp.,"[2]; PANC1, IC50 24 h",102.88 and 97.93 and 95.39
same,Maximal resp.,"[2]; PANC1, IC50 24 h",174.57 and 152.73 and 164.59
same,SRC,"[2]; PANC1, IC50 24 h",71.69 and 54.8 and 69.2
same,effect on ECAR,"[2]; PANC1, IC50 24 h",no apparent effect
same,OCR,"[2]; PANC1, IC50 24 h, time 1.53 min (I5) / 1.53 min (I6)",159.562 pmoles/min/µg protein and 146.086 pmoles/min/µg protein and 145.09 pmoles/min/µg protein
same,OCR,"[2]; PANC1, IC50 24 h, time 8.03 min (I5) / 8.01 min (I6)",147.434 pmoles/min/µg protein and 135.357 pmoles/min/µg protein and 133.103 pmoles/min/µg protein
same,OCR,"[2]; PANC1, IC50 24 h, time 14.5 min (I5) / 14.5 min (I6)",143.038 pmoles/min/µg protein and 132.495 pmoles/min/µg protein and 129.978 pmoles/min/µg protein
same,OCR,"[2]; PANC1, IC50 24 h, time 21.08 min (I5) / 21.07 min (I6)",66.5745 pmoles/min/µg protein and 57.8765 pmoles/min/µg protein and 56.7739 pmoles/min/µg protein
same,OCR,"[2]; PANC1, IC50 24 h, time 27.58 min (I5) / 27.55 min (I6)",66.0035 pmoles/min/µg protein and 58.3571 pmoles/min/µg protein and 57.0179 pmoles/min/µg protein
same,OCR,"[2]; PANC1, IC50 24 h, time 34.08 min (I5) / 34.04 min (I6)",69.58 pmoles/min/µg protein and 62.2166 pmoles/min/µg protein and 61.4483 pmoles/min/µg protein
same,OCR,"[2]; PANC1, IC50 24 h, time 40.66 min (I5) / 40.6 min (I6)",214.725 pmoles/min/µg protein and 187.294 pmoles/min/µg protein and 199.178 pmoles/min/µg protein
same,OCR,"[2]; PANC1, IC50 24 h, time 47.17 min (I5) / 47.09 min (I6)",200.494 pmoles/min/µg protein and 175.489 pmoles/min/µg protein and 184.522 pmoles/min/µg protein
same,OCR,"[2]; PANC1, IC50 24 h, time 53.68 min (I5) / 53.58 min (I6)",196.779 pmoles/min/µg protein and 170.973 pmoles/min/µg protein and 177.854 pmoles/min/µg protein
same,OCR,"[2]; PANC1, IC50 24 h, time 60.22 min (I5) / 60.14 min (I6)",40.9467 pmoles/min/µg protein and 34.6667 pmoles/min/µg protein and 34.4666 pmoles/min/µg protein
same,OCR,"[2]; PANC1, IC50 24 h, time 66.71 min (I5) / 66.63 min (I6)",41.5272 pmoles/min/µg protein and 35.8152 pmoles/min/µg protein and 35.5577 pmoles/min/µg protein
same,OCR,"[2]; PANC1, IC50 24 h, time 73.19 min (I5) / 73.15 min (I6)",40.1567 pmoles/min/µg protein and 34.5626 pmoles/min/µg protein and 34.5904 pmoles/min/µg protein
same,activation of p53 (p-p53 western blot),"[3]; PANC1, IC50, 1, 3, 6 and 24 h",did not activate p53
same,"phosphorylation of CHK1/2 (DDR pathway, western blot)","[3]; PANC1, IC50, 1, 3, 6 or 24 h",did not activate
same,fold change BAX vs Tubulin,"[3]; PANC1, time 1 h",1.132 fold change and 1.289 fold change and 1.219 fold change
same,fold change MCL1 vs Tubulin,"[3]; PANC1, time 1 h",0.6156 fold change and 0.9493 fold change and 1.031 fold change
same,fold change BAX vs Tubulin,"[3]; PANC1, time 3 h",1.6811 fold change and 1.471 fold change and 1.573 fold change
same,fold change BAX vs Tubulin,"[3]; PANC1, time 6 h",1.615 fold change and 2.78 fold change and 2.056 fold change
same,fold change MCL1 vs Tubulin,"[3]; PANC1, time 6 h",1.135 fold change and 2.241 fold change and 1.84 fold change
same,fold change BAX vs Tubulin,"[3]; PANC1, time 24 h",2.639 fold change and 1.942 fold change and 1.489 fold change
same,fold change p-ERK vs Tubulin,[3]; [4],1.209 fold change and 3.621 fold change and 2.27 fold change
same,fold change p-JNK vs Tubulin,[3]; [4],1.809 fold change and 1.288 fold change and 3.68 fold change
